Assay results taken from patent US6576260B2 (Gruenenthal GmbH, priority 1999, dated 2003).

Test: Intrinsic active substance release in water (USP <1087> intrinsic dissolution)
Assay type: physicochemical
Details: demineralized water, 37° C.±0.5° C.; gradient of cumulative release up to 10% released
Procedure: The intrinsic release of each of the two active substances is calculated from the gradient of the cumulative active substance release up to and including the time at which 10% of the […] have been released. It is given below as the release rate in mg·min^−1·cm^−2.

## COc1cccc([C@@]2(O)CCCC[C@@H]2CN(C)C)c1.Cl (racemic) [Tramadol hydrochloride, (1RS,2RS)-2-[(dimethylamino)methyl]-1-(3-methoxyphenyl)cyclohexanol hydrochloride]
  Intrinsic release in water (release rate): 21 mg · min^−1 · cm^−2

## COc1cccc(C2(O)CCCCC2CN(C)C)c1.O=C1NS(=O)(=O)c2ccccc21 (centres unmarked) [Tramadol saccharinate, tramadol saccharinate]
  Intrinsic release in water (release rate): 2 mg · min^−1 · cm^−2
